How the values were obtained:
[1] = target: T1, human B1R receptor (hB1R) (Homo sapiens, UniProt P46663); test: FLIPR Ca2+ assay on human bradykinin 1 receptor (CHO K1 hB1R cells); type: cell-based; conditions: test substance 10 μM; CHO K1 cells with human B1R gene; agonist Lys-Des-Arg9-bradykinin 0.5 nM; compared to maximum achievable inhibition
T1 construct: host or cells: CHO K1 cells
T1 sequence (P46663 1-353): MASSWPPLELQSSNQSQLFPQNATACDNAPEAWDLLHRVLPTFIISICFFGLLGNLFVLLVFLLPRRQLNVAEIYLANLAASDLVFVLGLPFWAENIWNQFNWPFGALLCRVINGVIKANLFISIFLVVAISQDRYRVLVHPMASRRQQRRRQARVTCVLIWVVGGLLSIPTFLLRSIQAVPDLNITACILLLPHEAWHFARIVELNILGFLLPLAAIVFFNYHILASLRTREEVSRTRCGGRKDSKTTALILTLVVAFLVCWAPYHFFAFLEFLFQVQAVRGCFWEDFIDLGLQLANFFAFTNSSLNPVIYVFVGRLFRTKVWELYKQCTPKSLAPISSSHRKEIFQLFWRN
In short: (§1)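 Values are percent inhibition of agonist-evoked Ca²⁺ influx, measured by Fluo-4 fluorescence peak in FLIPR relative to maximum achievable inhibition. Compound at 10 μM was preincubated 10 min on B1R-transfected CHO K1 cells before challenge with 0.5 nM Lys-Des-Arg9-bradykinin (human) or 100 nM Des-Arg9-bradykinin (rat).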

[2] = target: T2, B1R receptor of rats (rB1R) (Rattus norvegicus, UniProt P97583); test: FLIPR Ca2+ assay on rat bradykinin 1 receptor (CHO K1 rB1R cells); type: cell-based; conditions: test substance 10 μM; CHO K1 cells with B1R gene of rats; agonist Des-Arg9-bradykinin 100 nM; compared to maximum achievable inhibition
T2 construct: host or cells: CHO K1 cells
T2 sequence (P97583 1-337): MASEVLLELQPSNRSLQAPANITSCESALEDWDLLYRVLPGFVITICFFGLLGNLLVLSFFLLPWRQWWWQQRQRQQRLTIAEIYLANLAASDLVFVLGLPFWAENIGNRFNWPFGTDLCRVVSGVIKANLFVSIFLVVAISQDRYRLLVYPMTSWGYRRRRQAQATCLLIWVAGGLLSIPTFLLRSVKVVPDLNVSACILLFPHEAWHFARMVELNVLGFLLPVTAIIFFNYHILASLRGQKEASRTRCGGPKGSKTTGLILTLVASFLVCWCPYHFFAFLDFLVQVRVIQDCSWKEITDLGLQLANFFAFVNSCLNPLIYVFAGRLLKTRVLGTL
In short: as §1

| inhibition at 10 µM [1] [%] | inhibition at 10 µM [2] [%] | SMILES |
| --- | --- | --- |
| 85 | 97 | COc1cc(C)c(S(=O)(=O)N(C)CCOCC(=O)N2CCn3ccnc3C2)c(C)c1 [Example 56, N-(2-(2-(5,6-dihydroimidazo[1,2-a]pyrazin-7(8H)-yl)-2-oxoethoxy)ethyl)-4-methoxy-N,2,6-trimethylbenzenesulfonamide] |
| 106 | 104 | COc1cc(C)c(S(=O)(=O)N(C)CCOCC(=O)N2CCn3cc(CN4CCCCC4)nc3C2)c(C)c1 [Example 2, 4-methoxy-N,2,6-trimethyl-N-(2-(2-oxo-2-(2-(piperidin-1-ylmethyl)-5,6-dihydroimidazo[1,2-a]pyrazin-7(8H)-yl)ethoxy)ethyl)benzenesulfonamide] |
| 98 | 93 | COc1cc(C)c(S(=O)(=O)N(C)CCOCC(=O)N2CCn3cccc3C2c2cccnc2)c(C)c1 (centres unmarked) [Example 54, 4-methoxy-N,2,6-trimethyl-N-(2-(2-oxo-2-(1-(pyridin-3-yl)-3,4-dihydropyrrolo[1,2-a]pyrazin-2(1H)-yl)ethoxy)ethyl)benzenesulfonamide] |
| 101 | 99 | Cc1cc(C)c(S(=O)(=O)N(C)CCOCC(=O)N2CCn3cccc3C2C(C)(C)C)c(C)c1 (centres unmarked) [Example 65, N-(2-(2-(1-tert-butyl-3,4-dihydropyrrolo[1,2-a]pyrazin-2(1H)-yl)-2-oxoethoxy)ethyl)-N,2,4,6-tetramethylbenzenesulfonamide] |
| 58 | 96 | COc1cc(C)c(S(=O)(=O)N(CCOCC(=O)N2CCn3cccc3C2C(C)C)Cc2ccccc2)c(C)c1C (centres unmarked) [Example 124, N-benzyl-N-(2-(2-(1-isopropyl-3,4-dihydropyrrolo[1,2-a]pyrazin-2(1H)-yl)-2-oxoethoxy)ethyl)-4-methoxy-2,3,6-trimethylbenzenesulfonamide] |
| 87 | 92 | Cc1cc(C)c(S(=O)(=O)N(C)CCOCC(=O)N2CCn3cccc3C2C)c(C)c1 (centres unmarked) [Example 66, N,2,4,6-tetramethyl-N-(2-(2-(1-methyl-3,4-dihydropyrrolo[1,2-a]pyrazin-2(1H)-yl)-2-oxoethoxy)ethyl)benzenesulfonamide] |
| 100 | 97 | COc1cc(C)c(S(=O)(=O)N(C)CCOCC(=O)N2CCn3c(CCc4ccncc4)ccc3C2)c(C)c1 [Example 172, 4-Methoxy-N,2,6-trimethyl-N-(2-(2-oxo-2-(6-(2-(pyridin-4-yl)ethyl)-3,4-dihydropyrrolo[1,2-a]pyrazin-2(1H)-yl)ethoxy)ethyl)benzenesulfonamide] |
| 103 | 100 | COc1c(C)cc(S(=O)(=O)N(C)CCOCC(=O)N2CCn3c(CN(C)C)ccc3C2CCc2ccccc2)c(C)c1C (centres unmarked) [Example 110, N-(2-(2-(6-((dimethylamino)methyl)-1-phenethyl-3,4-dihydropyrrolo[1,2-a]pyrazin-2(1H)-yl)-2-oxoethoxy)ethyl)-4-methoxy-N,2,3,5-tetramethylbenzene-sulfonamide] |
| 104 | 102 | CCC1c2ccc(C)n2CCN1C(=O)COCCN(C)S(=O)(=O)c1c(C)cc(OC)cc1C (centres unmarked) [Example 138, N-(2-(2-(1-ethyl-6-methyl-3,4-dihydropyrrolo[1,2-a]pyrazin-2(1H)-yl)-2-oxoethoxy)ethyl)-4-methoxy-N,2,6-trimethylbenzenesulfonamide] |
| 99 | 100 | Cc1cc(C)c(S(=O)(=O)N(C)CCOCC(=O)N2CCn3cccc3C2c2cccnc2)c(C)c1 (centres unmarked) [Example 67, N,2,4,6-tetramethyl-N-(2-(2-oxo-2-(1-(pyridin-3-yl)-3,4-dihydropyrrolo[1,2-a]pyrazin-2(1H)-yl)ethoxy)ethyl)benzenesulfonamide] |
| 100 | 99 | COc1cc(C)c(S(=O)(=O)N(C)CCOCC(=O)N2CCn3cccc3C2c2cccc(C(F)(F)F)c2)c(C)c1 (centres unmarked) [Example 61, 4-methoxy-N,2,6-trimethyl-N-(2-(2-oxo-2-(1-(3-(trifluoromethyl)phenyl)-3,4-dihydropyrrolo[1,2-a]pyrazin-2(1H)-yl)ethoxy)ethyl)benzenesulfonamide] |
| 102 | 97 | COc1cc(C)c(S(=O)(=O)N(C)CCOCC(=O)N2CCn3cccc3C2c2ccc(C)c(C)c2)c(C)c1 (centres unmarked) [Example 58, N-(2-(2-(1-(3,4-dimethylphenyl)-3,4-dihydropyrrolo[1,2-a]pyrazin-2(1H)-yl)-2-oxoethoxy)ethyl)-4-methoxy-N,2,6-trimethylbenzenesulfonamide] |
| 99 | 97 | COc1cc(C)c(S(=O)(=O)N(C)CCOCC(=O)N2CCn3c(ccc3-c3ccncc3)C2)c(C)c1 [Example 177, 4-Methoxy-N,2,6-trimethyl-N-(2-(2-oxo-2-(6-(pyridin-4-yl)-3,4-dihydropyrrolo[1,2-a]pyrazin-2(1H)-yl)ethoxy)ethyl)benzenesulfonamide] |
| 93 | 102 | COc1cc(C)c(S(=O)(=O)N(CCOCC(=O)N2CCn3c(C)ccc3C2C(C)C)CC(C)C)c(C)c1C (centres unmarked) [Example 104, N-isobutyl-N-(2-(2-(1-isopropyl-6-methyl-3,4-dihydropyrrolo[1,2-a]pyrazin-2(1H)-yl)-2-oxoethoxy)ethyl)-4-methoxy-2,3,6-trimethylbenzenesulfonamide] |
| 43 | 93 | COc1cc(C)c(S(=O)(=O)N(C)CCOCC(=O)N2CCn3cnnc3C2)c(C)c1 [Example 3, N-(2-(2-(5,6-dihydro-[1,2,4]triazolo[4,3-a]pyrazin-7(8H)-yl)-2-oxoethoxy)ethyl)-4-methoxy-N,2,6-trimethylbenzenesulfonamide] |
| 97 | 100 | O=C(CC(NS(=O)(=O)c1ccc2ccccc2c1)c1ccccc1)N1CCn2c(CN3CCOCC3)ccc2C1 (centres unmarked) [Example 10, N-(3-(6-(morpholinomethyl)-3,4-dihydropyrrolo[1,2-a]pyrazin-2(1H)-yl)-3-oxo-1-phenylpropyl)naphthalene-2-sulfonamide] |
| 104 | 104 | COc1cc(C)c(S(=O)(=O)N(C)CCOCC(=O)N2CCn3c(CN4CCCCC4)ccc3C2c2ccccc2)c(C)c1C (centres unmarked) [Example 149, 4-methoxy-N,2,3,6-tetramethyl-N-(2-(2-oxo-2-(1-phenyl-6-(piperidin-1-ylmethyl)-3,4-dihydropyrrolo[1,2-a]pyrazin-2(1H)-yl)ethoxy)ethyl)benzene-sulfonamide] |
| 101 | 102 | CCC1c2ccc(C)n2CCN1C(=O)COCCN(CC(C)C)S(=O)(=O)c1c(C)cc(OC)c(C)c1C (centres unmarked) [Example 103, N-(2-(2-(1-ethyl-6-methyl-3,4-dihydropyrrolo[1,2-a]pyrazin-2(1H)-yl)-2-oxoethoxy)ethyl)-N-isobutyl-4-methoxy-2,3,6-trimethylbenzenesulfonamide] |
| 100 | 100 | COc1cc(C)c(S(=O)(=O)N(C)CCOCC(=O)N2CCn3cc(Cc4ccncc4)nc3C2)c(C)c1 [Example 179, 4-Methoxy-N,2,6-trimethyl-N-(2-(2-oxo-2-(2-(pyridin-4-ylmethyl)-5,6-dihydroimidazo[1,2-a]pyrazin-7(8H)-yl)ethoxy)ethyl)benzenesulfonamide] |
| 101 | 102 | COc1cc(C)c(S(=O)(=O)N(CCOCC(=O)N2CCn3c(CN(C)C)ccc3C2c2ccccc2)Cc2ccccc2)c(C)c1 (centres unmarked) [Example 126, N-benzyl-N-(2-(2-(6-((dimethylamino)methyl)-1-phenyl-3,4-dihydropyrrolo[1,2-a]pyrazin-2(1H)-yl)-2-oxoethoxy)ethyl)-4-methoxy-2,6-dimethylbenzenesulfonamide] |
| 47 | 66 | COc1cc(C)c(S(=O)(=O)N(C)CCOCC(=O)N2CCn3cccc3C2c2ccc(C(C)(C)C)cc2)c(C)c1C (centres unmarked) [Example 90, N-(2-(2-(1-(4-tert-butylphenyl)-3,4-dihydropyrrolo[1,2-a]pyrazin-2(1H)-yl)-2-oxoethoxy)ethyl)-4-methoxy-N,2,3,6-tetramethylbenzenesulfonamide] |
| 89 | 102 | CCCCC1c2ccc(CN(C)C)n2CCN1C(=O)COCCN(CC(C)C)S(=O)(=O)c1c(C)cc(OC)c(C)c1C (centres unmarked) [Example 97, N-(2-(2-(1-butyl-6-((dimethylamino)methyl)-3,4-dihydropyrrolo[1,2-a]pyrazin-2(1H)-yl)-2-oxoethoxy)ethyl)-N-isobutyl-4-methoxy-2,3,6-trimethylbenzene-sulfonamide] |

Source: patent US8263598B2, “Substituted sulfonamide compounds” (Gruenenthal GmbH, priority 2008, dated 2012)
